The conditions of series [1]: mouse, in vivo, iv.
The target in series [2] is targefrin. Put plainly: ITC; reverse titration: 200 μM protein in the syringe, 20 injections of 2.5 μL into 10 μM compound in the cell; 25 mM Tris pH 7.5, 150 mM NaCl, 1% DMSO, 25 °C. In general terms: Isothermal titration calorimetry measures the heat released or taken up as one component is titrated into another.

Chain of ephrin type-A receptor 2 ligand-binding domain (P29317 27-200): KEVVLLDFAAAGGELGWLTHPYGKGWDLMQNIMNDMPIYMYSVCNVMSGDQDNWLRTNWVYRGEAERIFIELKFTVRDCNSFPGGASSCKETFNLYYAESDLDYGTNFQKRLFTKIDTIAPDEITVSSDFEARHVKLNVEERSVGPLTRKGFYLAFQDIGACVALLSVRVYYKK

Turning to `CC(=O)O[C@H]1C(=O)[C@@]2(C)[C@H]([C@H](OC(=O)c3ccccc3)[C@]3(O)C[C@H](OC(=O)[C@H](O)[C@@H](NC(=O)c4ccccc4)c4ccccc4)C(C)=C1C3(C)C)[C@]1(OC(C)=O)CO[C@@H]1C[C@@H]2O` [PTX, paclitaxel], in series [1], the “Body weight (g), Friday” value worked out at 22.11 g; the “Body weight (g), Thursday” value amounted to 21.95 g; the “Body weight (g), Wednesday” value worked out at 21.85 g.
As usually defined, the Kd is a measure of binding affinity in units of concentration. Read a high Kd as lower affinity. In series [2], “ephrin type-A receptor 2 ligand-binding domain (from UniProt P29317 27-200) (domain or fragment)” had a dissociation constant (Kd) of 0.0217 µM and a dH of -84.5 kJ/mol.
